According to PMC7584160 (Environmental Health Perspectives, 2020):
Like-named read-outs stand apart in the source and are kept apart here.

Experiments:
[1] = tested on: GH3 cells; assay: GH3 cell proliferation assay in the presence of 10 nM T3; assay type: cell-based, rat
[2] = target: T1, human TRβ-LBD (Homo sapiens, UniProt P10828); assay: TRβ-LBD fluorescence polarization competitive binding assay (F-T3 probe)
T1 construct: purchased Zhongding Biotechnology Co. Ltd
T1 sequence (P10828 217-461 limits assumed): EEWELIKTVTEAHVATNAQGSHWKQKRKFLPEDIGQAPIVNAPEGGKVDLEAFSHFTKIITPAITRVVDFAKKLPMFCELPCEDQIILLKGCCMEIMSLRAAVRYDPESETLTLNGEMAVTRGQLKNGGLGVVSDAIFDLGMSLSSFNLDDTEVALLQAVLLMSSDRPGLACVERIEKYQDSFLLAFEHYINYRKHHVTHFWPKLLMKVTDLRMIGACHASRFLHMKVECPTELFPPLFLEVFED

[3] = target: T2, human transthyretin (TTR) (Homo sapiens, UniProt P02766); assay: TTR fluorescence polarization competitive binding assay (F-T4 probe); details: for TTR RBP (relative binding potency): IC50 of TBBPA divided by that of competitor, TBBPA set as 1.00
T2 construct: purchased Calbiochem 529577

[4] = target: T3, human TRα-LBD (Homo sapiens, UniProt P10827); assay: TRα-LBD fluorescence polarization competitive binding assay (F-T3 probe)
T3 sequence (P10827 163-410 isoform P10827-2 limits assumed): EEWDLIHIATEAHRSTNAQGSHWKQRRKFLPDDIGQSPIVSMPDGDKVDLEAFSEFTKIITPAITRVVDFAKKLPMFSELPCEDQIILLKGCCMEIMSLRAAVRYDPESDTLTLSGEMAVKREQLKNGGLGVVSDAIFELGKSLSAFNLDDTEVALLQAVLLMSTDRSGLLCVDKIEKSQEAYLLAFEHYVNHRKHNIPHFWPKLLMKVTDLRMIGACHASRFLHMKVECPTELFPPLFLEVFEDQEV

[5] = tested on: GH3 cells; assay: GH3 cell proliferation assay (individual exposure, with or without amiodarone); assay type: cell-based, rat; details: 96 h; for LOEC for GH3 cell proliferation: individual exposure
[6] = target: T4, human thyroxine-binding globulin (TBG) (Homo sapiens, UniProt P05543); assay: TBG fluorescence polarization competitive binding assay (F-T4 probe); details: 100 nM TBG, 50 nM F-T4; up to 50 μM competitor
T4 construct: purchased Calbiochem 612075
T4 sequence (P05543 21-415): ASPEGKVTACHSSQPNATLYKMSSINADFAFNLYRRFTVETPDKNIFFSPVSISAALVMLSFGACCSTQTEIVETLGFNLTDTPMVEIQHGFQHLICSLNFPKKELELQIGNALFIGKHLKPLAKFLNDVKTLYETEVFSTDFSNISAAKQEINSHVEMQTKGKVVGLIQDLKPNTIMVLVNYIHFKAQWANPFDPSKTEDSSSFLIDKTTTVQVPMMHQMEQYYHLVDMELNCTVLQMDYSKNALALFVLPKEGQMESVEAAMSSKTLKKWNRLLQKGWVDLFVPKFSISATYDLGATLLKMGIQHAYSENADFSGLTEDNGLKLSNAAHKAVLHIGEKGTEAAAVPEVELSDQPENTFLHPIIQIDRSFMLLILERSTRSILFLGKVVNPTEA

[7] = IC20 of TBBPA divided by that of competitor, TBBPA set as 1.00
[8] = […] nM TRβ-LBD, 50 nM F-T3, pH 7.5, 25°C, linear interpolation, read-out: TRβ-LBD IC20
[9] = co-exposed with 10 nM T3, mass concentration
[10] = […] nM TTR, 50 nM F-T4, pH 7.5, 25°C, linear interpolation, read-out: TTR IC50 (converted)
[11] = […] nM TRα-LBD, 50 nM F-T3, pH 7.5, 25°C, linear interpolation, read-out: TRα-LBD IC20

Which results are given for `CC(C)(c1cc(Br)c(OCC2CO2)c(Br)c1)c1cc(Br)c(OCC2CO2)c(Br)c1` (centres unmarked) [TBBPA-BGE, TBBPA-bis(glycidyl ether)]?
Inhibition of T3-induced GH3 cell proliferation effect ([1]; co-exposed with 10 nM T3): approximately 80%; TRβ-LBD RBP [2, 7]: 0.20; IC20 [2, 8]: 25000 nM

What does the source list for `CC(C)(c1cc(Br)c(O)c(Br)c1)c1cc(Br)c(OCC(Br)CBr)c(Br)c1` (centres unmarked) [TBBPA-MDBPE, TBBPA-mono(2,3-dibromopropyl ether)]?
TTR RBP (relative binding potency) [3]: 0.20; IC50 ([3]; TTR IC50, […] nM TTR, 50 nM F-T4, pH 7.5, 25°C, linear interpolation): 1000 nM; IC50 ([3]; TTR IC50, mass concentration given beside the μM value): 990 nM; TTR-binding potency, fold lower than natural ligand T4 ([3]; compared with T4): ~5 fold; LOEC for enhancing T3-induced GH3 cell proliferation ([1]; co-exposed with 10 nM T3): 0.3 µM; LOEC for enhancing T3-induced GH3 cell proliferation [1, 9]: 220 µg/L; TRβ-LBD RBP [2, 7]: 0.25; IC20 ([2]; pH 7.5, read-out: TRβ-LBD IC20): 20000 nM; IC20 ([2]; read-out: TRβ-LBD IC20): 14.7 µg/mL; TRα-LBD RBP [4, 7]: 0.03; IC20 ([4]; pH 7.5, read-out: TRα-LBD IC20): 50000 nM; IC20 ([4]; read-out: TRα-LBD IC20): 36.8 µg/mL; LOEC for GH3 cell proliferation [5]: 0.3 µM; LOEC for GH3 cell proliferation ([5]; mass concentration): 220 µg/L

With `CC(C)(c1cc(Br)c(O)c(Br)c1)c1cc(Br)c(OCC2CO2)c(Br)c1` (centres unmarked) [TBBPA-MGE, TBBPA-mono(glycidyl ether)] as the molecule, how does the “TTR RBP (relative binding potency)” value [3] read?
The value was 0.40.

What about the IC50 [3, 10] of the same molecule?
Its IC50 is 500 nM.

What about the “TTR-binding potency, fold lower than natural ligand T4” value ([3]; compared with T4) of the same molecule?
The value was “approximately 2 fold”.

What about the “LOEC for enhancing T3-induced GH3 cell proliferation” value ([1]; co-exposed with 10 nM T3) of the same molecule?
The value was 1.2 µM.

What about the “LOEC for enhancing T3-induced GH3 cell proliferation” value [1, 9] of the same molecule?
Its value is 700 µg/L.

And the “TRβ-LBD RBP” value [2]?
Its value is 0.83.

And the IC20 [2, 8]?
Its IC20 is 6000 nM.

And the “TRα-LBD RBP” value [4]?
Its value is 0.18.

And the IC20 [4, 11]?
Its IC20 is 8000 nM.

And the “LOEC for GH3 cell proliferation” value [5]?
Its value is 2.5 µM.

What about the “LOEC for GH3 cell proliferation” value ([5]; mass concentration) of the same molecule?
The value was 1400 µg/L.

Which “Inhibition of T3-induced GH3 cell proliferation effect” value ([1]; co-exposed with 10 nM T3) does the source give for `C=CCOc1c(Br)cc(C(C)(C)c2cc(Br)c(OCC=C)c(Br)c2)cc1Br` [TBBPA-BAE, TBBPA-bis(allyl ether)] here?
The value was roughly 60%.

How did the “TTR RBP (relative binding potency)” value [3] turn out when `C=CCOc1c(Br)cc(C(C)(C)c2cc(Br)c(O)c(Br)c2)cc1Br` [TBBPA-MAE, TBBPA-mono(allyl ether)] was run?
The value was 2.00.

What about the IC50 [3, 10] of the same molecule?
The IC50 was 100 nM.

And the “TTR-binding potency, fold higher than T4” value ([3]; compared with T4)?
Its value is 2 fold.

And the “TTR-binding potency, fold greater than TBBPA” value ([3]; compared with TBBPA)?
The value was 2 fold.

What about the IC50 ([3]; mass concentration given beside the μM value, read-out: TTR IC50 (converted)) of the same molecule?
The IC50 was 97.6 nM.

What about the “TRβ-LBD RBP” value [2, 7] of the same molecule?
The value was 1.25.

What about the IC20 [2, 8] of the same molecule?
Its IC20 is 4000 nM.

What about the IC20 ([2]; mass concentration given beside the μM value, read-out: TRβ-LBD IC20) of the same molecule?
The IC20 was 2.3 µg/mL.

What about the “TRα-LBD RBP” value [4, 7] of the same molecule?
The value was 0.25.

What about the IC20 [4, 11] of the same molecule?
The IC20 was 6000 nM.

And the IC20 ([4]; mass concentration given beside the μM value, read-out: TRα-LBD IC20)?
The IC20 was 3.4 µg/mL.

Which results are given for `CC(C)(c1cc(Br)c(O)c(Br)c1)c1cc(Br)c(O)c(Br)c1` [TBBPA, Tetrabromobisphenol A, reference compound]?
LOEC for enhancing T3-induced GH3 cell proliferation ([1]; co-exposed with 10 nM T3): 2.5 µM; Enhancement of T3-induced GH3 cell proliferation effect ([1]; co-exposed with 10 nM T3, 96 h): 20%; TRβ-LBD RBP [2, 7]: 1.00; IC20 [2, 8]: 5000 nM; Binding to TBG [6]: did not bind; TRα-LBD RBP [4, 7]: 1.00; IC20 [4, 11]: 1500 nM; Highest activity of GH3 proliferation induction ([5]; individual exposure 0.3-10 μM, relative to 0.1% DMSO control): 137%; LOEC for GH3 cell proliferation [5]: 2.5 µM

Which “Effect on T3-induced GH3 cell proliferation” value ([1]; co-exposed with 10 nM T3) does the source give for `CC(C)(c1cc(Br)c(OCC(Br)CBr)c(Br)c1)c1cc(Br)c(OCC(Br)CBr)c(Br)c1` (centres unmarked) [TBBPA-BDBPE, TBBPA-bis(2,3-dibromopropyl ether)] here?
The value was “no effect”.
